In ChEMBL document CHEMBL1201862, “PubChem BioAssay data set” (2004):
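In this assay, cells in 96-well plates receive the compound at five concentrations for 48 hours. Endpoints are linearly interpolated between the surrounding concentrations. At the GI50, growth is halved.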 Active and inactive are the calls of the source. Cut-off read from the data, not from the text of the source: active = GI50 up to about 1.1 µM and inactive = higher.

Legend:
Test in all cases: inhibition of tumour cell growth, NCI panel, 48 h
LXFL 529 = test system: LXFL 529
SNB-78 = test system: SNB-78
M19-MEL = test system: M19-MEL
RXF 631 = test system: RXF 631
DMS-114 = test system: DMS-114
HOP-18 = test system: HOP-18
KM-20L2 = test system: KM-20L2
XF498 = test system: XF498
DMS-273 = test system: DMS-273

Compound	GI50 (LXFL 529)	GI50 (SNB-78)	GI50 (M19-MEL)	GI50 (RXF 631)	GI50 (DMS-114)	GI50 (HOP-18)	GI50 (KM-20L2)	GI50 (XF498)	GI50 (DMS-273)
CCN(CC)CCOC(c1ccccc1)c1ccccc1.CCOC(=O)Nc1ccc(S(=O)(=O)OC)cc1.CCOC(=O)Nc1ccc(S(=O)(=O)OC)cc1.Nc1ccc(C(=O)O)c(O)c1	> 100 µM (inactive)	> 100 µM (inactive)	> 100 µM (inactive)	> 100 µM (inactive)	> 100 µM (inactive)	> 100 µM (inactive)	> 100 µM (inactive)	–	–
CCOc1ccc(OCC(=O)O)c2c1CCCC2=O	> 100 µM (inactive)	> 100 µM (inactive)	> 100 µM (inactive)	> 100 µM (inactive)	> 100 µM (inactive)	–	–	> 100 µM (inactive)	> 100 µM (inactive)
CCCNC(=O)c1cc2ccccc2cc1C(=O)OC	> 100 µM (inactive)	> 100 µM (inactive)	> 100 µM (inactive)	> 100 µM (inactive)	> 100 µM (inactive)	> 100 µM (inactive)	> 100 µM (inactive)	> 100 µM (inactive)	> 100 µM (inactive)
COc1cc(O)c(C(=O)C2Cc3ccccc32)c(OC)c1 (stereo unspecified)	34 µM (inactive)	> 100 µM (inactive)	–	86.9 µM (inactive)	27.4 µM (inactive)	34.4 µM (inactive)	65.3 µM (inactive)	–	43.4 µM (inactive)
COc1ccc(C(=O)c2c(C(C(=O)c3ccc(OC)cc3)C(=O)c3ccc(OC)cc3)n(C(=O)c3ccc(OC)cc3)c3ccccc23)cc1	> 100 µM (inactive)	> 100 µM (inactive)	> 100 µM (inactive)	–	> 100 µM (inactive)	–	> 100 µM (inactive)	> 100 µM (inactive)	> 100 µM (inactive)
O=C1OC(CC(=O)c2ccc(Cl)c(Cl)c2)C(Cl)=C1Cl (stereo unspecified)	58.6 µM (inactive)	–	> 100 µM (inactive)	> 100 µM (inactive)	52.6 µM (inactive)	> 100 µM (inactive)	> 100 µM (inactive)	64 µM (inactive)	> 100 µM (inactive)
Cc1cc(NS(=O)(=O)c2ccc(NC(=O)c3cccn4c(=O)c5ccccc5nc34)cc2)no1	> 100 µM (inactive)	> 100 µM (inactive)	> 100 µM (inactive)	> 100 µM (inactive)	> 100 µM (inactive)	> 100 µM (inactive)	> 100 µM (inactive)	> 100 µM (inactive)	> 100 µM (inactive)
CCOC(OCC)(OCC)C(Br)CC (stereo unspecified)	51.9 µM (inactive)	> 100 µM (inactive)	> 100 µM (inactive)	> 100 µM (inactive)	12.5 µM (inactive)	> 100 µM (inactive)	11.8 µM (inactive)	> 100 µM (inactive)	19.1 µM (inactive)
N=C(N)NCCCC(NCc1c2ccccc2[n+]([O-])c2ccccc12)C(=O)O (stereo unspecified)	32.7 µM (inactive)	66.7 µM (inactive)	–	59.8 µM (inactive)	26.4 µM (inactive)	> 100 µM (inactive)	42.9 µM (inactive)	–	40.4 µM (inactive)
CCN(CC)C1CC(O[C@H]2C[C@](O)(C(=O)CO)Cc3c(O)c4c(c(O)c32)C(=O)c2c(OC)cccc2C4=O)OC(C)C1O (stereo partly specified)	0.0458 µM (active)	0.08 µM (active)	0.0484 µM (active)	0.0655 µM (active)	0.0647 µM (active)	–	0.0733 µM (active)	0.0752 µM (active)	< 0.0215 µM (active)
CCCCOC(=O)NC(=O)c1cn(CCCOC(=O)CCCCCCCCC(=O)OCCCn2cc(C(=O)NC(=O)OCCCC)c(=O)n(C)c2=O)c(=O)n(C)c1=O	> 100 µM (inactive)	> 100 µM (inactive)	> 100 µM (inactive)	> 100 µM (inactive)	> 100 µM (inactive)	–	> 100 µM (inactive)	> 100 µM (inactive)	> 100 µM (inactive)
